Experimental data published in patent publication US8440836B2, “Heterocyclic alkanol derivatives” (Bayer Intellectual Property GmbH, priority 2010, dated 2013).

Experiments:
[1] = logP by HPLC (EEC Directive 79/831 Annex V.A8); format: physicochemical; conditions: HPLC reversed-phase C18, method [a]: LC-MS, pH 2.7, 0.1% aqueous formic acid / acetonitrile, gradient 10% to 95% acetonitrile; for chromatographic logP: reversed-phase C18 HPLC column
[2] = system: Septoria tritici; assay: Septoria tritici test (wheat)/protective; format: in vivo; conditions: wheat plants, protective spray, 500 ppm active ingredient, evaluation 21 days after inoculation
[3] = system: Puccinia triticina; assay: Puccinia triticina test (wheat)/protective; format: in vivo; conditions: wheat plants, protective spray, 500 ppm active ingredient, evaluation 8 days after inoculation
Text: Evaluation follows 8 days after the inoculation.

[4] = system: Sphaerotheca fuliginea; assay: Sphaerotheca test (cucumber)/protective; conditions: cucumber plants, protective spray, 500 ppm active ingredient, evaluation 7 days after inoculation
Method: • Solvent: 49 parts by weight of N,N-dimethylformamide • Emulsifier: 1 part by weight of alkylaryl polyglycol ether
To produce an appropriate active ingredient formulation, 1 part by weight of active ingredient is mixed with the specified amounts of solvent and emulsifier, and the concentrate is diluted with water to the desired concentration. To test for protective activity, young cucumber plants are sprayed with the formulation of active ingredient at the stated application rate. 1 day after the treatment, the plants are inoculated with a spore suspension of Sphaerotheca fuliginea. The plants are then placed in a greenhouse at 70% relative air humidity and a temperature of 23° C. Evaluation follows 7 days after the inoculation.

[5] = system: Blumeria graminis f.sp. hordei; assay: Blumeria graminis test (barley)/protective; format: in vivo; conditions: barley plants, protective spray, 500 ppm active ingredient, evaluation 7 days after inoculation
[6] = system: Leptosphaeria nodorum; assay: Leptosphaeria nodorum test (wheat)/protective; format: in vivo; conditions: wheat plants, protective spray, 500 ppm active ingredient, evaluation 8 days after inoculation

Row | SMILES | logP [1] | efficacy [4] [%] | further results
1 | CC1(C(O)(COc2cccc([N+](=O)[O-])c2)c2cncs2)CC1 (centres unmarked) [Compound 45] | logP 2.62^[a]; [M + H]^+ = 321 | – | –
2 | OC(COc1ccc(I)cc1)(c1cncs1)C1(C(F)(F)F)CC1 (centres unmarked) [Compound 81] | logP 3.59^[a]; [M + H]^+ = 456 | – | –
3 | CC1(C(O)(COc2ccc(I)cc2)c2cncs2)CCCCC1 (centres unmarked) [Compound 25] | logP 4.53^[a]; [M + H]^+ = 444 | 100 | efficacy [2]: 86%; efficacy [3]: 78%
4 | CC1(C(O)(COc2cccc(I)c2)c2cncs2)CC1 (centres unmarked) [Compound 26] | logP 3.41^[a]; [M + H]^+ = 402 | 75 | –
5 | OC(COc1ccc(Br)cc1)(c1cncs1)C1(C(F)(F)F)CC1 (centres unmarked) [Compound 82] | logP 3.43^[a]; [M + H]^+ = 408/410 | – | –
6 | CC1(C(O)(COc2ccccc2Br)c2cncs2)CC1 (centres unmarked) [Compound 24] | – | 83 | –
7 | CC(C)(C)C(O)(COc1ccc(Oc2ccc(Cl)cc2)cc1)c1cncs1 (centres unmarked) [Compound 29] | logP 4.50^[a]; [M + H]^+ = 404 | 98 | –
8 | CC(C)(C)C(O)(CCc1ccc(N)cc1)c1cncs1 (centres unmarked) [Compound 76] | logP 1.16; [M + H]^+ = 291 | – | –
9 | CC(C)(C)C(O)(COc1ccc(C2CCCC2)cc1)c1cncs1 (centres unmarked) [Compound 80] | logP 4.78^[a]; [M + H]^+ = 346 | 94 | –
10 | OC(Cc1cnc(Cl)s1)(Cc1ccccc1F)C1(Cl)CC1 (centres unmarked) [Compound 59] | logP 4.21^[a]; [M + H]^+ = 346 | – | –
11 | CC(C)(C)C(O)(COc1ccc(Cl)cc1)Cc1cncs1 (centres unmarked) [Compound 64] | logP 3.49^[a]; [M + H]^+ = 326 | 100 | –
12 | CC(C)(C)C(O)(COc1ccc(-c2ccc(C(F)(F)F)cc2)cc1)c1cncs1 (centres unmarked) [Compound 30] | logP 4.62^[a]; [M + H]^+ = 422 | – | –
13 | CC(C)(C)C(O)(COc1ccc(C2CCCCC2)cc1)c1cncs1 (centres unmarked) [Compound 37] | logP 5.21^[a]; [M + H]^+ = 360 | 100 | –
14 | CC(C)(C)C(O)(CCc1ccc(Cl)cc1)c1cncs1 (centres unmarked) [Compound 5] | – | 100 | –
15 | CC(CF)(CF)C(O)(Cc1ccccc1Cl)c1cncs1 (centres unmarked) [Compound 46] | logP 2.78^[a]; [M + H]^+ = 332 | – | –
16 | CC(CF)(CF)C(O)(COc1ccc(Cl)cc1)c1cncs1 (centres unmarked) [Compound 9] | logP 2.94^[a]; [M + H]^+ = 348 | 95 | –
17 | CC(C)(C)C(O)(COc1ccc(Oc2ccc(Br)cc2)cc1)c1cncs1 (centres unmarked) [Compound 28] | logP 4.66^[a]; [M + H]^+ = 448/450 | 95 | –
18 | CC(C)(C)c1ccc(CCC(O)(c2cncs2)C(C)(C)C)cc1 (centres unmarked) [Compound 77] | logP 1.98^[a]; [M + H]^+ = 333 | – | –
19 | CC1(C(O)(COc2ccccc2I)c2cncs2)CC1 (centres unmarked) [Compound 55] | logP 3.33^[a]; [M + H]^+ = 402 | – | –
20 | CC(C)C(O)(COc1ccc(I)cc1)c1cncs1 (centres unmarked) [Compound 21] | – | 85 | –
21 | CC(C)(C)C(O)(CCc1ccc(OC(F)(F)F)cc1)c1cncs1 (centres unmarked) [Compound 74] | logP 3.93^[a]; [M + H]^+ = 360 | 100 | –
22 | COc1ccc(CCC(O)(c2cncs2)C(C)(C)C)cc1 (centres unmarked) [Compound 73] | logP 2.94^[a]; [M + H]^+ = 306 | 78 | –

Row | SMILES | logP [1] | efficacy [4] [%] | further results
23 | CC(C)(C)C(O)(Cc1ccc(F)cc1)c1cncs1 (centres unmarked) [Compound 48] | – | – | chromatographic logP [1]: 2.91
24 | CC(C)(C)C(O)(COc1ccc(I)cc1)Cc1cnc(Cl)s1 (centres unmarked) [Compound 62] | logP 5.12^[a]; [M + H]^+ = 452 | – | –
25 | CC(C)(C)C(O)(COc1ccc(-c2ccccc2)cc1)c1cncs1 (centres unmarked) [Compound 50] | logP 4.03^[a]; [M + H]^+ = 354 | 100 | –
26 | CC(=O)c1ccc(-c2ccc(OCC(O)(c3cncs3)C(C)(C)C)cc2)cc1 (centres unmarked) [Compound 31] | – | 100 | –
27 | CC(C)[Si](c1ncc(C(O)(CCc2ccc(Cl)cc2)C(C)(C)C)o1)(C(C)C)C(C)C (centres unmarked) [Compound 70] | logP 7.36^[a]; [M + H]^+ = 451 | – | –
28 | CC(C)(C)C(O)(COc1ccc(F)cc1)Cc1cnc(Cl)s1 (centres unmarked) [Compound 63] | logP 4.20^[a]; [M + H]^+ = 344 | – | –
29 | CC(C)(C)C(O)(COc1ccc(F)cc1)c1cncs1 (centres unmarked) [Compound 42] | logP 2.91^[a]; [M + H]^+ = 296 | 94 | efficacy [5]: 100%; efficacy [3]: 89%
30 | CC(C)[Si](c1ncc(C(O)(Cc2ccccc2Cl)C2(Cl)CC2)o1)(C(C)C)C(C)C (centres unmarked) [Compound 68] | logP 7.18^[a]; [M + H]^+ = 455 | – | –
31 | COc1cc(-c2ccccc2)ccc1OCC(O)(c1cncs1)C(C)(C)C (centres unmarked) [Compound 49] | logP 4.02^[a]; [M + H]^+ = 384 | – | –
32 | CC(C)(C)C(O)(COc1ccc(F)cc1)Cc1cncs1 (centres unmarked) [Compound 66] | logP 3.16^[a]; [M + H]^+ = 310 | – | –
33 | OC(Cc1ccccc1Cl)(c1cncs1)C1(Cl)CC1 (centres unmarked) [Compound 7] | – | 83 | –
34 | CC(C)C(O)(COc1ccc(Br)cc1)c1cncs1 (centres unmarked) [Compound 22] | – | 96 | –
35 | CC(CF)(CF)C(O)(COc1ccc(Br)cc1)c1cncs1 (centres unmarked) [Compound 8] | logP 3.02^[a]; [M + H]^+ = 392/394. | 94 | efficacy [5]: 89%
36 | OC(Cc1ccccc1Cl)(c1cnco1)C1(Cl)CC1 (centres unmarked) [Compound 69] | logP 2.88^[a]; [M + H]^+ = 299 | – | –
37 | OC(COc1ccc(Cl)cc1)(c1cncs1)C1(Cl)CC1 (centres unmarked) [Compound 16] | – | 78 | –
38 | CC(C)(C)c1ccc(OCC(O)(c2cncs2)C(C)(C)C)cc1 (centres unmarked) [Compound 40] | logP 4.39^[a]; [M + H]^+ = 334 | 90 | –
39 | CC(CF)(CF)C(O)(Cc1ccccc1F)c1cncs1 (centres unmarked) [Compound 47] | logP 2.47^[a]; [M + H]^+ = 316 | – | –
40 | CC1(C(O)(COc2ccc(Cl)cc2)c2cncs2)CCCCC1 (centres unmarked) [Compound 34] | logP 4.25^[a]; [M + H]^+ = 352 | 99 | –
41 | CC(C)(C)C(O)(COc1ccc(Oc2ccc(C(F)(F)F)cc2)cc1)c1cncs1 (centres unmarked) [Compound 32] | logP 4.63^[a]; [M + H]^+ = 438 | 96 | –
42 | CC(CF)(CF)C(O)(COc1ccc(Cl)cc1)Cc1cncs1 (centres unmarked) [Compound 67] | logP 3.04^[a]; [M + H]^+ = 362 | 95 | –
43 | CC(C)C(O)(COc1ccc(SC(F)(F)F)cc1)c1cncs1 (centres unmarked) [Compound 17] | – | 93 | –
44 | CC(C)(C)C(O)(COc1ccc(-c2ccc(Br)cc2)cc1)c1cncs1 (centres unmarked) [Compound 52] | logP 4.71^[a]; [M + H]^+ = 432/434 | 100 | –

Row | SMILES | logP [1] | efficacy [4] [%] | further results
45 | CC(C)(C)C(O)(CCc1ccc([N+](=O)[O-])cc1)c1cncs1 (centres unmarked) [Compound 75] | logP 2.98^[a]; [M + H]^+ = 321 | – | –
46 | CC(C)(C)C(O)(CCc1ccc(Cl)cc1)c1cnco1 (centres unmarked) [Compound 71] | logP 3.45^[a]; [M + H]^+ = 294 | – | –
47 | CC(C)(C)C(O)(COc1ccc(OC(F)(F)F)cc1)c1cncs1 (centres unmarked) [Compound 20] | – | 88 | efficacy [2]: 100%; efficacy [5]: 100%; efficacy [6]: 100%; efficacy [3]: 100%
48 | CC(C)(C)C(O)(CCc1ccc(Br)cc1)c1cncs1 (centres unmarked) [Compound 72] | logP 3.69^[a]; [M + H]^+ = 354, 356 | 100 | –
49 | CC(C)(C)C(O)(COc1ccc(SC(F)(F)Cl)cc1)c1cncs1 (centres unmarked) [Compound 58] | logP 4.23^[a]; [M + H]^+ = 394 | – | –
50 | CC(CF)(CF)C(O)(COc1ccc(Cl)cc1)Cc1cnc(Cl)s1 (centres unmarked) [Compound 65] | logP 3.94^[a]; [M + H]^+ = 397 | – | –
51 | CCN(C)C=Nc1ccc(CCC(O)(c2cncs2)C(C)(C)C)cc1 (centres unmarked) [Compound 78] | logP 1.33^[a]; [M + H]^+ = 360 | – | –
52 | CC(C)(C)C(O)(COc1ccc(-c2ccc(Cl)cc2)cc1)c1cncs1 (centres unmarked) [Compound 36] | logP 4.55^[a]; [M + H]^+ = 388 | 98 | –
53 | CC(C)(C)C(O)(COc1ccc(Oc2ccc(F)cc2)cc1)c1cncs1 (centres unmarked) [Compound 38] | logP 4.03^[a]; [M + H]^+ = 388 | 98 | –
54 | CC1(C(O)(COc2cccc(Br)c2)c2cncs2)CC1 (centres unmarked) [Compound 27] | logP 3.24^[a]; [M + H]^+ = 354, 356 | 93 | –
55 | CC(C)(C)C(O)(COc1ccc(Cl)cc1)Cc1cnc(Cl)s1 (centres unmarked) [Compound 61] | logP 4.68^[a]; [M + H]^+ = 360 | – | –
56 | CC(C)(C)C(O)(COc1ccc(-c2ccc(I)cc2)cc1)c1cncs1 (centres unmarked) [Compound 19] | logP 4.89^[a]; [M + H]^+ = 480 | – | –
57 | CC(C)(C)C(O)(COc1ccc(Cl)cc1)c1cnc(S)s1 (centres unmarked) [Compound 12] | – | 98 | chromatographic logP [1]: 3.06; efficacy [5]: 89%; efficacy [6]: 86%
58 | CC(C)(C)C(O)(CCc1ccc(Cl)cc1)Cc1cncs1 (centres unmarked) [Compound 18] | – | 95 | –
59 | OC(Cc1cnc(I)s1)(Cc1ccccc1Cl)C1(Cl)CC1 (centres unmarked) [Compound 39] | – | 100 | efficacy [5]: 90%
60 | CC(C)C(O)(COc1ccc(Cl)cc1)c1cncs1 (centres unmarked) [Compound 23] | – | 80 | –
61 | CC(C)(/C=C/Cl)C(O)(COc1ccc(Cl)cc1)c1cncs1 (centres unmarked) [Compound 54] | logP 3.67^[a]; [M + H]^+ = 358 | 95 | –
62 | CC(C)(C)C(O)(COc1ccc(-c2ccc(C#N)cc2)cc1)c1cncs1 (centres unmarked) [Compound 51] | logP 3.46^[a]; [M + H]^+ = 379 | 94 | –
63 | OC(Cc1ccccc1Cl)(c1cncs1)C1(F)CC1 (centres unmarked) [Compound 11] | logP 2.64^[a]; [M + H]^+ = 298 | 70 | efficacy [5]: 78%
64 | CC(C)(C)C(O)(COc1cccc(Oc2ccccc2)c1)c1cncs1 (centres unmarked) [Compound 43] | logP 3.98^[a]; [M + H]^+ = 370 | – | –
65 | CC(C)(C)C(O)(CCc1ccc(SC(F)(F)F)cc1)c1cncs1 (centres unmarked) [Compound 6] | – | 100 | –
